In data set [1] the test system is cyclin D1. The experiment in a line: Western blot of IGF-1 induced cyclin D1 expression in MCF-7 cells. Particulars: 10 μM auraptene, 2 h pretreatment, 8 h after IGF-1, MCF-7 cells. It counts as cell-based, human. As to the method:
To study the effect of auraptene on the expression on cyclin D1, MCF-7 cells were plated in eight 12-well plates at 1.5 × 10^4 cells/well. The cells were incubated at 37°C till the next day in media with serum. The cells were serum starved for synchronization in serum free media for the next 24 h. At 22 h of serum starvation, the cells except in DMSO only and IGF-1 only groups, were treated with 10 μM auraptene in DMSO. At 24 h of serum starvation, the cells except in DMSO group were treated with 10 ng/mL of IGF-1. The cells were harvested at 5,15 and 30 minutes and at 1 h, 2 h, 4 h, 8 h and 24 h after IGF-1 treatment by directly adding boiling Laemmeli buffer. The cyclin D1 expression was then analyzed by western blot. In short, equal volumes (15 μL) of the sample in Laemmeli buffer was loaded into each well and resolved. The separated proteins were then electroblotted on a 0.45 μm pore size PVDF membrane (Immobilon-P, Millipore, Billerica, MA). After the protein transfer the membrane was placed in Millipore SNAP id Protein Detection System. […] The band intensity was evaluated using the Image-J software. […]
Figure 2 Effects of auraptene on human breast carcinoma cells. […] Cell proliferation was assessed using the MTT reagent. […] Cell proliferation was assessed using the MTS reagent. […]
(Immunoblotting shows a protein as a band on a membrane.)

In data set [2] the test system is eukaryotic Initiation Factor 4E (eIF4E). The experiment in a line: Western blot of eIF4E expression in rat mammary tumors. The class given is in vivo, female Sprague-Dawley rats. Particulars: dietary auraptene, data not shown. As to the method:
(§1) The mammary tumors from the female Sprague-Dawley rats were analyzed for cyclin D1 expression and eukaryotic Initiation Factor 4E (eIF4E) as previously described. Briefly, samples were first homogenized in RIPA buffer [50 mM Tris-HCL (pH 7.4), 1% Triton-X, 150 mM NaCl, 1 mM EDTA, 1 mM sodium orthovanadate, 1 mM PMSF, 1 μg of aprotinin, leupeptin and pepstatin and 1 mM sodium fluoride]. The proteins were measured by Bradford method (using BSA as a standard), followed by the addition of 2 × sample buffer [0.125 M Tris, 10% (w/v) SDS, 40% (v/v) glycerol, 0.04% (w/v) bromophenol blue, and 80 mM dithiothreitol]. Samples were heated to 95°C for 5 min, and 10 μg of protein/well was loaded and resolved. The proteins were then transferred and detected for cyclin D1 expression as mentioned above. Lysate from MCF-7 cells treated with IGF-1 was used as positive control for cyclin D1.

Data set [3] deals with cyclin D1. The experiment in a line: Western blot of cyclin D1 expression in rat mammary tumors. It counts as in vivo, female Sprague-Dawley rats. Particulars: 500 ppm in diet, compared to MNU only group, n = 10 per group. As to the method:
as §1
Figure 5 Effects of dietary auraptene on cyclin D1 expression in rat mammary tumors. From the same tumor study, rat mammary tumors were homogenized and the lysates were used for western blot to analyze the cyclin D1 expression. […] (+ statistically different from MNU group, * statistically different from Auraptene 200 group, p < 0.05, One-way ANOVA, Tukey test).

The nature of data set [4]: Tissue extraction and HPLC-fluorescence analysis of auraptene in rat tissues. Particulars: for average concentration in normal mammary glands: means ± S.E. It counts as in vivo, female Sprague-Dawley rats. The method, then: The concentration of auraptene was measured in mammary glands, livers and tumors of rats. The specimens from the animals were weighed and minced on a glass plate kept on ice. The minced sample was added to 0.05 M Tris buffer, pH 7.4, containing 0.25 M sucrose in 1 ml. To 1 ml of this homogenized sample, 80 μL of 100 μM curcumin was added as internal standard followed by vortexing. The sample was then extracted twice with ethyl acetate: acetone (2:1 v/v). The combined supernatant was then dried under N2 gas, resuspended in 1 mL 70% methanol/H2O and analyzed by HPLC (Shimadzu, SIL-10AF) with UV (254 nm) and fluorescence detection (Shimadzu, RF-535) at excitation and emission wavelengths of 329 nm and 390 nm respectively. The flow rate in HPLC was 1 ml/min with C18*5μ column. The mobile phase started with 80% methanol in water up to 20 minutes and was increased in a linear gradient up to 100% methanol over the next 5 minutes. Under these conditions, auraptene eluted at 14 minutes and curcumin at 6 minutes. The ratio of area under the curve for auraptene at different concentrations to that of curcumin was plotted to make the standard curve. The concentration of auraptene in the specimens was calculated from the standard curve. For the calculation of concentration, 1 gm of the tissue was assumed to occupy a volume of 1 ml.
Figure 6 Concentrations of auraptene in rat tissues from the tumor study. The rat mammary glands, tumors and livers were weighed and homogenized. To the homogenate 80 μL of 100 μM curcumin was added as internal standard and extracted twice with ethyl acetate: acetone mixture (2:1 v/v). The extract was dried and resuspended in 1 mL 70% methanol/H2O and analyzed by HPLC (Shimadzu, SIL-10AF) with UV (254 nm) and fluorescence detection (Shimadzu, RF-535) at excitation and emission wavelengths of 329 nm and 390 nm respectively.

These results are taken from article PMC2724550, “Citrus auraptene suppresses cyclin D1 and significantly delays N-methyl nitrosourea induced mammary carcinogenesis in female Sprague-Dawley rats” (BMC Cancer, 2009).

The structures appear in SMILES notation.

Turning to `CC(C)=CCC/C(C)=C/COc1ccc2ccc(=O)oc2c1` [auraptene], the “IGF-1 induced cyclin D1 expression” value in the data set on cyclin D1 [1] is recorded as “nearly a total loss of IGF-1 induced cyclin D1 expression”. In addition, the “eIF4E protein expression in rat mammary tumors” value in data set [2] is recorded as “no significant change”. In the data set on cyclin D1 [3], the “reduction of cyclin D1 expression in rat mammary tumors” value is 49%. Besides, the “average concentration in normal mammary glands” value came to 1.4 ± 0.5 µM in data set [4] (200 ppm in diet) and 1.8 ± 0.3 µM in data set [4] (500 ppm in diet). Besides, in data set [4] (500 ppm in diet, mean, n = 2), the average concentration in livers turned out to be 0.87 µM.
